US6624182B1, “Hydroxyphenylvinylthiazoles” (Ciba Specialty Chemicals Corporation, priority 1999, dated 2003)

What was measured:
P. aeruginosa = assay: Determination of the minimum inhibitory concentration (MIC value) in microtitre plates; format: cell-based, Pseudomonas aeruginosa CIP A-22; details: Pseudomonas aeruginosa; optical density at 620 nm, 48 hours at 37° C., MIC = ≦20% growth; tested at 100; 10 and 1 ppm (approximate values); (2), (3), (4) at 120; 60; 30; 15; 7.5; 3.75 ppm
Outline: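 P. aeruginosa CIP A-22 at 1−5×10^6 KBE/ml, diluted 1:100 in CASO bouillon, exposed to 1:2 serial dilutions of DMSO-dissolved compound for 48 h at 37 °C, in duplicate. Growth read by OD 620 nm; MIC is the lowest concentration giving ≤20% growth relative to growth control.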

C. albicans = assay: as above; format: cell-based, Candida albicans ATCC 10231; details: Candida albicans; optical density at 620 nm, 48 hours at 37° C., MIC = ≦20% growth; tested at 100; 10 and 1 ppm (approximate values); (2), (3), (4) at 120; 60; 30; 15; 7.5; 3.75 ppm
Outline: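 Candida albicans ATCC 10231 grown overnight in CASO broth, adjusted to 1–5×10^6 CFU/ml then diluted 1:100, was exposed to 1:2 serial dilutions of compound (DMSO) for 48 h at 37 °C. Growth was read as OD620; MIC was the concentration giving ≤20% growth versus control, tested in duplicate.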

Compound | MIC (P. aeruginosa) | MIC (C. albicans)
CC(C)(C)c1csc(/C=C/c2ccccc2O)n1 [Compound of formula (3)] | > 100 µg/mL | > 100 µg/mL
Oc1ccc(/C=C/c2nc(-c3ccccc3)cs2)cc1 [Compound of formula (4)] | > 100 µg/mL | 30 µg/mL
Oc1ccc(/C=C/c2nc(-c3ccc(F)cc3)cs2)cc1 [Compound of formula (2)] | > 100 µg/mL | 30 µg/mL
